# Laboratory results as given in US20090023646A1, “GHRH analogues” (Centre Hospitalier de L'Universite de Montreal (CHUM), priority 2002, published 2009).
# Square brackets hold non-standard residues; d marks the D form. Peptide text beside a SMILES is read from it.
# Tested on: adult female rats
# Test: In vivo GH secretion after single IV or SC injection in female rats
# Set-up: species or system rat
# Method: The ability of human GHRH analogue #5 (human [D-Ala^2, D-Tyr^10, D-Ala^15, Lys^22] GHRH (1-29)NH2 analogue) to stimulate GH secretion was studied in adult female rats (26-34 weeks at onset of treatment) and in a male Beagle dog.
# Human GHRH analogue #5 in 0.9% sodium chloride for injection USP was administered once either by intravenous (IV) or subcutaneous (SC) injection to female rats followed by a 14-day observation period, as shown in Table 2. Prior to administration, all dosing formulations were filtered using a 0.22 μm filter to ensure sterility. The actual amount of GHRH analogue #5 administered was calculated and adjusted based on the animal's most recent body weight. Dosing started at approximately the same time each day, commencing at 9:00 am±30 minutes.
# For pharmacodynamic investigations, blood samples (approximately 1.3 ml) were collected from 2 animals per group per time point (maximum 3 time points/animal) via a jugular venipuncture at the following time points: pre-dose, 4, 10, 15, 45 minutes and 5 hours post dosing. […]
# Plasma GH was determined by Linco Diagnostic Services using their own kit.
# Linco's Rat Growth Hormone radioimmunoassay kit (RIA) (RGH-45HK) is intended for the quantitative determination of Rat Growth Hormone in serum, plasma, and tissue culture media. […]
structure (smiles),measurement,setting,value
"CC[C@H](C)[C@H](NC(=O)[C@H](C)NC(=O)[C@H](CC(=O)O)NC(=O)[C@@H](C)NC(=O)[C@@H](N)Cc1ccc(O)cc1)C(=O)N[C@@H](Cc1ccccc1)C(=O)N[C@H](C(=O)N[C@@H](CC(N)=O)C(=O)N[C@@H](CO)C(=O)N[C@H](Cc1ccc(O)cc1)C(=O)N[C@@H](CCCNC(=N)N)C(=O)N[C@@H](CCCCN)C(=O)N[C@H](C(=O)N[C@@H](CC(C)C)C(=O)N[C@H](C)C(=O)N[C@@H](CCC(N)=O)C(=O)N[C@@H](CC(C)C)C(=O)N[C@@H](CO)C(=O)N[C@@H](C)C(=O)N[C@@H](CCCNC(=N)N)C(=O)N[C@@H](CCCCN)C(=O)N[C@@H](CCCCN)C(=O)N[C@@H](CC(C)C)C(=O)N[C@@H](CCC(N)=O)C(=O)N[C@@H](CC(=O)O)C(=O)N[C@H](C(=O)N[C@@H](CCSC)C(=O)N[C@@H](CO)C(=O)N[C@@H](CCCNC(=N)N)C(N)=O)[C@@H](C)CC)C(C)C)[C@@H](C)O [GHRH analogue #5, [D-Ala^2, D-Tyr^10, D-Ala^15, Lys^22] hGHRH(1-29)-NH2] (H-Y[dA]DAIFTNS[dY]RKVL[dA]QLSARKKLQDIMSR-NH2)",in vivo potency compared with the natural 44 amino acid GHRH,"in vivo, conclusion",at least two times more potent
same,GH secretion compared with response to natural hGHRH(1-44)NH2,"rat, pulse amplitude and AUC",twice larger
